Measured values published in patent US20220339135A1, “COMPOSITIONS AND METHODS FOR MODULATING AN INFLAMMATORY RESPONSE” (Enzychem Lifesciences Corporation, priority 2019, published 2022).

Key:
[1] = tested on: intracellular calcium in dHL-60 cells; test: Fluo-4 calcium assay; type: cell-based, human
Method: Human leukemia line (HL-60) cells were differentiated (dHL-60) to neutrophil-like cells in the culture medium with the addition of 1.3% DMSO (Sigma) for 5 days in a humidified atmosphere at 37° C. without changing the medium. dHL-60 cells (2×10^5 cells/mL) were loaded with 5 μM fluo-4 AM for 45 minutes and washed three times with warmed modified (37° C.) HBSS buffer (137.93 mM NaCl, 5.33 mM KCl, 2 mM CaCl2), 1 mM MgSO4, 2.38 mM HEPES, 5.5 mM glucose, pH to 7.4). The cells were seeded on black-walled 96-well plates and then treated with vehicle (0.1% DMSO), ionomycin (5 μM; positive control) or PLAG (100 μg/mL) just before measurement. Baseline fluorescence was measured before treatment, and fluorescence was read every 20 s for 700 s using an excitation wavelength of 494 nm, an emission wavelength of 516 nm in a FlexStation 3 microplate reader (Molecular Devices). Fluorescence values were reported as F/Fo according to the calculation: [ΔF=(494 nm)f/(516 nm)f−(494 nm)0/(516 nm)0]. For studies in 0 mM external calcium, the cells were loaded as mentioned earlier. After being loaded, the cells were washed four times with calcium-free HBSS. The remainder of the study was carried out in calcium-free HBSS.
(§1) HL-60 cells were differentiated (dHL-60) to neutrophil-like cells in the culture medium with the addition of 1.3% DMSO (Sigma) for 5 days in a humidified atmosphere at 37° C. without changing the medium. dHL-60 cells (2×10^5 cells/mL) were loaded with 5 μM fluo-4 AM for 45 minutes and washed three times with warmed modified (37° C.) HBSS buffer (137.93 mM NaCl, 5.33 mM KCl, 2 mM CaCl2, 1 mM MgSO4, 2.38 mM HEPES, 5.5 mM glucose, pH to 7.4). […] Baseline fluorescence was measured before treatment, and fluorescence was read every 20 seconds for 700 seconds using an excitation wavelength of 494 nm, an emission wavelength of 516 nm in a FlexStation 3 microplate reader (Molecular Devices). Fluorescence values were reported as F/Fo according to the calculation: [ΔF=(494 nm)f/(516 nm)f−(494 nm)0/(516 nm)0]. […]
as §1, with “s” for “seconds”, “Devices).” for “Devices). Fluorescence values were reported as F/Fo according to the calculation: [ΔF=(494 nm)f/(516 nm)f−(494 nm)0/(516 nm)0].”

[2] = tested on: ERK, JNK, p38MAPK in differentiated HaCaT cells; test: IMQ-induced MAPK phosphorylation, western blot; type: cell-based; settings: PLAG 1, 10, 100 μg/ml, dose-dependent
Method: Differentiated HaCaT cells were divided into three groups: 1) control (non-treated) group, 2) IMQ treated group, and 3) IMQ/PLAG treated group. For IMQ treated group, cells were stimulated with IMQ (5 μg/ml) for 0, 20, 60 minutes. For IMQ/PLAG treated group, cells were pre-incubated with PLAG (1, 10, 100 μg/ml) for 1 hour and then stimulated with IMQ (5 μg/ml) for an hour. Then, cells were harvested. Cells were ruptured with 1×RIPA lysis buffer (Cell Signaling Technology) containing the protease inhibitor (Roche, Indianapolis, Ind., USA), and phosphatase inhibitor (Thermo Fisher Scientific Inc.) on ice. The cell lysates were then clarified by centrifugation and samples were analyzed on polyacrylamide gels. Each sample was separated by sodium dodecyl sulfate-polyacrylamide gel electrophoresis (SDS-PAGE) on polyacrylamide gels and the proteins were blotted onto a PVDF membrane (Bio-Rad). The membrane was blocked with 5% BSA (Gibco) in PBS containing 0.05% Tween-20 (Merck Millipore, Billerica, Mass., USA). The membrane was incubated with antibodies against phosphor-ERK (Thr202/Tyr204), ERK, phosphor-JNK (Thr183/Tyr185), SAPK/JNK, phosphor-p38MAPK (Thr180/thr182), and p38MAPK, overnight at 4° C. All antibodies were purchased from Cell signaling technology. Target proteins were detected with Immobilon Western Chemiluminescent HRP Substrate (Merck Millipore).

Structure (SMILES): CCCCC/C=C\C/C=C\CCCCCCCC(=O)OC(COC(C)=O)COC(=O)CCCCCCCCCCCCCCC (racemic) [PLAG, 1-palmitoyl-2-linoleoyl-3-acetylglycerol]
- cytosolic calcium of dHL-60 cells ([1]; PLAG 100 μg/mL, ionomycin 5 μM): increased
- intracellular calcium levels, co-treatment with imiquimod ([1]; vs imiquimod alone, extracellular calcium-free and containing condition): significantly increased
- IMQ-induced phosphorylation of ERK, JNK, p38 MAPK [2]: attenuated
